The results in this text go back to patent US20110028719A1, “SCREENING METHODS FOR AMYLOID BETA MODULATORS” (priority 2006, published 2011).

The assay has as its target immobilized Aβ fibrils (Homo sapiens, UniProt P05067). As to the kind of experiment: FAC-MS assay of free Aβ monomer (indicator) binding to immobilized Aβ fibrils in the presence of test compounds.

immobilized Aβ fibrils, sequence (P05067 672-713 limits assumed): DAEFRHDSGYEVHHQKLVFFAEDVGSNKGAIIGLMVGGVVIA

With `O[C@H]1[C@H](O)[C@@H](O)[C@H](O)[C@@H](O)[C@H]1O` [Myo, myo-inositol, reference compound], for the setting “FAC-MS % shift of breakthrough time of free Aβ1-42 monomer (1 μM) on immobilized Aβ fibrils, compounds 1-10 μM in 20 mM NH4OAc, 1% DMSO, void marker M3”, the “% of Shift” value came out at 34%.

`O[C@H]1[C@H](O)[C@@H](O)[C@H](O)[C@@H](O)[C@@H]1O` [scyllo-cyclohexanehexyl, scyllo-inositol, reference compound]: where the note is “increasing concentrations, breakthrough curves shifted to the left (greater % shift), FIG. 3”, the “effect of increasing concentrations on free Aβ monomer binding time” value is listed as “dose dependent reduction in the free Aβ monomer binding time”.
